{
  "source": "paper PMC12566520",
  "about": "“Targeted Modification of the Antimicrobial Peptide DGL13K Reveals a Naturally Optimized Sequence for Topical Applications” (Microorganisms, 2025)",
  "key": {"[1]": {"tested_on": "Staphylococcus aureus Xen36", "format": "cell-based", "conditions": "for MIC S. aureus: overnight 37 °C, OD630; for Antibacterial activity against S. aureus compared with unmodified peptide (in words): MIC assay", "method": "(§1) Pseudomonas aeruginosa Xen41 and Staphylococcus aureus Xen36 were obtained from Xenogen (Alameda, CA; now Revvity, Waltham, MA, USA) and Revvity, respectively, and stored at −80 °C in 10% glycerol. P. aeruginosa were cultured in Luria-Bertani broth while S. aureus were cultured in Todd-Hewitt Broth (Difco, Franklin Lakes, NJ, USA) overnight at 37 °C and shaking at 200 rpm. Cultures typically reached an optical density at 600 nm of 1.7 for P. aeruginosa and 1.3 for S. aureus.\n(§2) MIC assays were performed as previously described. Briefly, overnight cultures of P. aeruginosa Xen41 were diluted to 10^5 CFU/mL in Mueller-Hinton Broth (Difco) while S. aureus Xen36 were similarly diluted in Todd-Hewitt Broth. Bacteria (100 µL) were added to 20 µL of 2-fold peptide dilutions in 10% PBS in 96-well polypropylene culture plates. The plates were incubated overnight at 37 °C with gentle rocking and then the optical density at 630 nm (OD630) was recorded in a BioTek Synergy HT plate reader (BioTek, Winooski, VT, USA; now Agilent, Santa Clara, CA, USA). Bioluminescence was recorded for quality control of the bioluminescent bacteria."}, "[2]": {"tested_on": "Pseudomonas aeruginosa Xen41", "format": "cell-based", "conditions": "for MIC P. aeruginosa: overnight 37 °C, OD630", "method": "as §1, §2"}, "[3]": {"conditions": "aqueous stock 10 mg/mL in dH2O or 0.01% acetic acid, 4 °C, more than 2 years; cited from earlier work", "description": "Peptides are typically considered inherently unstable in aqueous solutions [57]."}, "human red blood cells": {"tested_on": "human red blood cells", "conditions": "cited from earlier work", "description": "The selective activity of many AMPs exploits the compositional differences between prokaryotic and eukaryotic membranes to avoid mammalian cell toxicity. The selectivity of AMPs is typically determined as the ratio between the hemolytic concentration and the MIC of the AMP (therapeutic index). One measure of the hemolytic activity is the peptide concentration leading to 50% lysis of red blood cells (HC50 = hemolytic concentration 50). This assay is routinely used for screening purposes and the lack of red cell toxicity is an important consideration for IV delivery of an AMP. ..."}, "[4]": {"conditions": "cited from earlier work"}, "P. aeruginosa [5]": {"tested_on": "P. aeruginosa", "parameters": "method as in PMID 23917321", "conditions": "bacterial proteases, cultures of Gram-negative P. aeruginosa; cited from earlier work"}, "Enterococcus faecalis": {"tested_on": "Enterococcus faecalis", "conditions": "cited from earlier work", "description": "Proteolytic processing of AMPs has been cited as a concern for their development for clinical use. DGL13K was originally designed to overcome proteolytic processing of the L-enantiomer in cultures of P. aeruginosa."}, "P. aeruginosa [6]": {"tested_on": "P. aeruginosa", "experiment": "Heat stability (MIC assay after heating)", "format": "physicochemical, Pseudomonas aeruginosa", "conditions": "1 mg/mL in 10% PBS, 80 °C for 60 min vs room temperature; read-out MIC assay against P. aeruginosa; duplicates, N = 2, repeated with similar results", "method": "Peptides were diluted to 1 mg/mL in sterile 10% PBS (1 part PBS, 9 parts dH2O) and heated for 60 min in a 0.5 mL microcentrifuge tube in a water bath set at 80 °C. Control samples were similarly incubated at room temperature. The samples were used for MIC assays, as described below.\nas §2\nFigure 1 Heat stability of GL13K peptides. LGL13K (circles) or DGL13K (boxes) were incubated for 1 h at room temperature (open symbols) or 80 °C (closed symbols) and then used for an MIC assay against P. aeruginosa. Duplicate samples were tested and plotted as mean ± range, N = 2. The experiment was repeated with similar results."}, "[7]": {"conditions": "Table 2, Xen36, 10^5 CFU/mL in Todd-Hewitt Broth, median MIC of 1–3 independent experiments"}, "[8]": {"conditions": "Table 2, Xen41, 10^5 CFU/mL in Mueller-Hinton Broth, median MIC of 1–3 independent experiments"}, "[9]": {"conditions": "Table 3, Xen41, Mueller-Hinton Broth, median MIC of 2–4 independent experiments, values outside tested range set at 1000 µg/mL"}, "[10]": {"conditions": "Table 3, Xen36, Todd-Hewitt Broth, median MIC of 2–4 independent experiments, values outside tested range set at 1000 µg/mL"}},
  "note": "Read-outs that look alike come from different tables or passages of the source. Square brackets hold non-standard residues; d marks the D form. Ends that are not written are not given here. Peptide text beside a SMILES is read from it. d(aIle) = CC[C@H](C)[C@@H](N)C(=O)O; aIle = CC[C@@H](C)[C@H](N)C(=O)O",
  "data": [
    {"molecule": "CC[C@H](C)[C@@H](NC(=O)[C@@H](CCCCN)NC(=O)CN)C(=O)N[C@@H](C(=O)N[C@H](CCCCN)C(=O)N[C@H](CC(C)C)C(=O)N[C@H](CCCCN)C(=O)N[C@H](C)C(=O)N[C@H](CO)C(=O)N[C@H](CC(C)C)C(=O)N[C@H](CCCCN)C(=O)N[C@H](CC(C)C)C(=O)N[C@H](CC(C)C)C(N)=O)[C@@H](C)CC", "note": "[D-allo-Ile GL13K] (H-G[dK][d(aIle)][d(aIle)][dK][dL][dK][dA][dS][dL][dK][dL][dL]-NH2; N-terminus assumed)", "values": [
      {"measurement": "MIC S. aureus", "setting": "[1]; [7]", "value": 2.6, "unit": "µg/mL"},
      {"measurement": "MIC P. aeruginosa", "setting": "[2]; [8]", "value": 5.2, "unit": "µg/mL"}
    ]},
    {"molecule": "CC[C@@H](C)[C@@H](NC(=O)[C@@H](Cc1c[nH]c2ccccc12)NC(=O)[C@@H](CCCCN)NC(=O)[C@@H](CCCCN)NC(=O)CN)C(=O)N[C@H](CCCCN)C(=O)N[C@H](CCCCN)C(=O)N[C@H](C)C(=O)N[C@H](CO)C(=O)N[C@H](CCCCN)C(=O)N[C@H](Cc1c[nH]c2ccccc12)C(=O)N[C@H](CC(C)C)C(=O)O", "note": "[DGL12W] (H-G[dK][dK][dW][dI][dK][dK][dA][dS][dK][dW][dL]-OH; N-terminus assumed)", "values": [
      {"measurement": "Antibacterial activity against S. aureus compared with unmodified peptide (in words)", "setting": "[1]", "value": "lost its activity"},
      {"measurement": "MIC P. aeruginosa", "setting": "[2]; [9]", "value": 13, "unit": "µg/mL"}
    ]},
    {"molecule": "CC[C@@H](C)[C@@H](NC(=O)[C@@H](CCCCN)NC(=O)CN)C(=O)N[C@@H](C(=O)N[C@H](CCCCN)C(=O)N[C@H](CC(C)C)C(=O)N[C@H](CCCCN)C(=O)N[C@H](C)C(=O)N[C@H](CO)C(=O)N[C@H](CC(C)C)C(=O)N[C@H](CCCCN)C(=O)N[C@H](CC(C)C)C(=O)N[C@H](CC(C)C)C(N)=O)[C@H](C)CC", "note": "[DGL13K] (H-G[dK][dI][dI][dK][dL][dK][dA][dS][dL][dK][dL][dL]-NH2; N-terminus assumed)", "values": [
      {"measurement": "Loss of antibacterial activity of aqueous solution after storage", "setting": "[3]", "value": "did not lose antibacterial activity"},
      {"measurement": "HC50 (peptide concentration leading to 50% lysis of red blood cells)", "setting": "human red blood cells", "value": "500 to 1000", "unit": "µg/mL"},
      {"measurement": "stability of aqueous solution (no loss of antibacterial activity)", "setting": "[4]", "value": "> 2", "unit": "years"},
      {"measurement": "Proteolytic degradation in cultures of P. aeruginosa", "setting": "P. aeruginosa [5]", "value": "not degraded"},
      {"measurement": "Proteolytic degradation in cultures of Enterococcus faecalis", "setting": "Enterococcus faecalis", "value": "resists proteolytic degradation"},
      {"measurement": "MIC S. aureus", "setting": "[1]; [7]", "value": 2.6, "unit": "µg/mL"},
      {"measurement": "MIC S. aureus", "setting": "[1]; [10]", "value": 1.3, "unit": "µg/mL"},
      {"measurement": "MIC P. aeruginosa", "setting": "[2]; [8]", "value": 7.8, "unit": "µg/mL"},
      {"measurement": "MIC P. aeruginosa", "setting": "[2]; [9]", "value": 5.2, "unit": "µg/mL"},
      {"measurement": "Loss of activity after heating of solution", "setting": "P. aeruginosa [6]", "value": "no loss of activity"}
    ]},
    {"molecule": "CC[C@@H](C)[C@@H](NC(=O)[C@@H](CCCNC(=N)N)NC(=O)CN)C(=O)N[C@@H](C(=O)N[C@H](CCCNC(=N)N)C(=O)N[C@H](CC(C)C)C(=O)N[C@H](CCCNC(=N)N)C(=O)N[C@H](C)C(=O)N[C@H](CO)C(=O)N[C@H](CC(C)C)C(=O)N[C@H](CCCNC(=N)N)C(=O)N[C@H](CC(C)C)C(=O)N[C@H](CC(C)C)C(N)=O)[C@H](C)CC", "note": "[DGL13R] (H-G[dR][dI][dI][dR][dL][dR][dA][dS][dL][dR][dL][dL]-NH2; N-terminus assumed)", "values": [
      {"measurement": "Antibacterial activity against S. aureus compared with unmodified peptide (in words)", "setting": "[1]", "value": "not different from the parent peptide"},
      {"measurement": "MIC S. aureus", "setting": "[1]; [10]", "value": 2.6, "unit": "µg/mL"}
    ]},
    {"molecule": "CC[C@@H](C)[C@H](NC(=O)[C@H](CCCCN)NC(=O)CN)C(=O)N[C@H](C(=O)N[C@@H](CCCCN)C(=O)N[C@@H](CC(C)C)C(=O)N[C@@H](CCCCN)C(=O)N[C@@H](C)C(=O)N[C@@H](CO)C(=O)N[C@@H](CC(C)C)C(=O)N[C@@H](CCCCN)C(=O)N[C@@H](CC(C)C)C(=O)N[C@@H](CC(C)C)C(N)=O)[C@H](C)CC", "note": "[L-allo-Ile GL13K] (H-GK[aIle][aIle]KLKASLKLL-NH2; N-terminus assumed)", "values": [
      {"measurement": "MIC S. aureus", "setting": "[1]; [7]", "value": 83.3, "unit": "µg/mL"},
      {"measurement": "MIC P. aeruginosa", "setting": "[2]; [8]", "value": 10.4, "unit": "µg/mL"}
    ]},
    {"molecule": "GKIIKLKASLKLL-NH2 [LGL13K]", "values": [
      {"measurement": "HC50 (peptide concentration leading to 50% lysis of red blood cells)", "setting": "human red blood cells", "value": "500 to 1000", "unit": "µg/mL"},
      {"measurement": "Proteolytic degradation in cultures of P. aeruginosa", "setting": "P. aeruginosa [5]", "value": "susceptible to bacterial proteases"},
      {"measurement": "MIC S. aureus", "setting": "[1]; [7]", "value": 83.3, "unit": "µg/mL"},
      {"measurement": "MIC P. aeruginosa", "setting": "[2]; [8]", "value": 10.4, "unit": "µg/mL"}
    ]},
    {"molecule": "GKIIKLKASLKLL-NH2 [PEG-LGL13K, N-terminally PEGylated version of LGL13K]", "values": [
      {"measurement": "Fold increase in MIC for S. aureus versus unmodified parent peptide", "setting": "[1]; compared with DGL13K (or LGL13K for PEG-LGL13K), Figure 4", "value": "two"},
      {"measurement": "Fold increase in MIC for P. aeruginosa versus unmodified parent peptide", "setting": "[2]; compared with DGL13K (or LGL13K for PEG-LGL13K), Figure 4 / Table 3", "value": "three-fold"}
    ]}
  ]
}
